Measurements as given in US12398097B2, “WDR5-MYC inhibitors” (Vanderbilt University, priority 2019, dated 2025).

target: WDR5 (Homo sapiens, UniProt P61964); assay: Competition-based fluorescence polarization anisotropy assay; conditions: binding to WDR5; displacement of FITC-labeled small molecule probe (analogous to Example J2 or HCH-25) or peptide probe FITC-AHx-SEEEIDVVSV; pH 6.0; Ki converted from IC50
Outline: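 Ki values derive from displacement of either a fluorescent small-molecule probe or a FITC-peptide probe from WDR5, monitored by fluorescence polarization. Assay run at pH 6.0 in 200 mM phosphate with 300 mM NaCl, 0.5 mM TCEP and 0.1% Chaps.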

Row | Ki [nM] | Compound
1 | 400 | CC(C)N(CCS(=O)(=O)c1cc(Cl)cc(NS(=O)(=O)c2cc(Br)cc(Cl)c2O)c1)C(C)C [Example S37, 5-Bromo-3-chloro-N-(3-chloro-5-((2-(diisopropylamino)ethyl)sulfonyl)phenyl)-2-hydroxybenzenesulfonamide]
2 | 4380 | CCN(CC)CCS(=O)(=O)c1cc(Cl)cc(NS(=O)(=O)c2cc(Br)ccc2O)c1 [Example S40, 5-Bromo-N-(3-chloro-5-((2-(diethylamino)ethyl)sulfonyl)phenyl)-2-hydroxybenzenesulfonamide]
3 | 3810 | CC(C)N(CCS(=O)(=O)c1cc(Cl)cc(NS(=O)(=O)c2cc(Br)ccc2O)c1)C(C)C [Example S41, 5-Bromo-N-(3-chloro-5-((2-(diisopropylamino)ethyl)sulfonyl)phenyl)-2-hydroxybenzenesulfonamide]
4 | 31300 | CCN(CC)CCS(=O)(=O)c1cc(Cl)cc(NS(=O)(=O)c2cc(Br)cc3cccnc23)c1 [Example S43, 6-Bromo-N-(3-chloro-5-((2-(diethylamino)ethyl)sulfonyl)phenyl)quinoline-8-sulfonamide]
5 | 20600 | CCN(CC)CCS(=O)(=O)c1cc(Cl)cc(NS(=O)(=O)c2cc(Br)ccc2OC)c1 [Example S46, 5-Bromo-N-(3-chloro-5-((2-(diethylamino)ethyl)sulfonyl)phenyl)-2-methoxybenzenesulfonamide]
6 | 290 | COc1ccc(Br)cc1S(=O)(=O)Nc1cc(Cl)cc(S(C)(=O)=O)c1O [Example S49, 5-Bromo-N-(5-chloro-2-hydroxy-3-(methylsulfonyl)phenyl)-2-methoxybenzenesulfonamide]
7 | 1450 | CN(C)CCCS(=O)(=O)c1cc(Cl)cc(NS(=O)(=O)c2cc(Br)cc(Cl)c2O)c1 [Example S51, 5-Bromo-3-chloro-N-(3-chloro-5-((3-(dimethylamino)propyl)sulfonyl)phenyl)-2-hydroxybenzenesulfonamide]
8 | 830 | CN(C)CCCS(=O)(=O)c1cc(Cl)cc(NS(=O)(=O)c2cc(Br)ccc2O)c1 [Example S52, 5-Bromo-N-(3-chloro-5-((3-(dimethylamino)propyl)sulfonyl)phenyl)-2-hydroxybenzenesulfonamide]
9 | 800 | CS(=O)(=O)c1cc(Cl)cc(NS(=O)(=O)c2cc(Br)cc(Cl)c2O)c1F [Example S54, 5-Bromo-3-chloro-N-(5-chloro-2-fluoro-3-(methylsulfonyl)phenyl)-2-hydroxybenzenesulfonamide]
10 | 850 | CS(=O)(=O)c1cc(Cl)cc(NS(=O)(=O)c2cc(Br)cc3c2OCC3)c1O [Example S55, 5-Bromo-N-(5-chloro-2-hydroxy-3-(methylsulfonyl)phenyl)-2,3-dihydrobenzofuran-7-sulfonamide]
11 | 310 | COc1ccc(Br)cc1S(=O)(=O)Nc1cc(C2(C#N)CCC2)cc(S(C)(=O)=O)c1O [Example S59, 5-Bromo-N-(5-(1-cyanocyclobutyl)-2-hydroxy-3-(methylsulfonyl)phenyl)-2-methoxybenzenesulfonamide]
12 | 50 | CS(=O)(=O)c1cc(C2(C#N)CCC2)cc(NS(=O)(=O)c2cc(Br)cc(Cl)c2O)c1O [Example S60, 5-Bromo-3-chloro-N-(5-(1-cyanocyclobutyl)-2-hydroxy-3-(methylsulfonyl)phenyl)-2-hydroxybenzenesulfonamide]
13 | 190 | CS(=O)(=O)c1cc(C2(C#N)CCC2)cc(NS(=O)(=O)c2cc(Br)cc3cccnc23)c1O [Example S61, 6-Bromo-N-(5-(1-cyanocyclobutyl)-2-hydroxy-3-(methylsulfonyl)phenyl)quinoline-8-sulfonamide]
14 | 160 | CNC(=O)c1cc(S(F)(F)(F)(F)F)cc(NS(=O)(=O)c2cc(Br)cc(Cl)c2O)c1O [Example S63, 3-((5-Bromo-3-chloro-2-hydroxyphenyl)sulfonamido)-2-hydroxy-N-methyl-5-(pentafluoro-λ^6-sulfaneyl)benzamide]
